Laboratory results reported in patent publication US20190183868A1, “FORMULATIONS AND TREATMENTS EMPLOYING HYDROXYPYRIDONATE ACTINIDE/LANTHANIDE DECORPORATION AGENTS” (priority 2016, published 2019).

Key:
[1] = Complex stability constant in vitro, Pu(IV); format: binding
Source text: (§1) The mechanism of action of 3,4,3-LI(1,2-HOPO) is a chelation mechanism, in which the compound binds the targeted actinide and forms a stable complex that can be eliminated through excretion pathways. Chelation is likely to be clinically efficacious if the affinity of the chelating agent for the targeted actinide metal ion is higher than those of potential biological ligands (such as proteins and bone matrices) and if its affinity for the targeted actinide metal ion is more specific than for essential divalent metal ions. A quantitative tool to predict the efficacy of a chelating agent and confirm its potential for actinide chelation is the determination of the corresponding actinide complex stability constants in vitro. As outlined in Example 2 below, these constants were evaluated for metals such as Pu(IV) (Log β110>41.5) or Cm(III) (Log β110=21.8), and support the chelation mechanism of action by 3,4,3-LI(1,2-HOPO).

[2] = ADME studies with ^14C-labeled 3,4,3-LI(1,2-HOPO) in rats (brain); format: in vivo; conditions: ^14C-labeled ligand; traces in rat brain several days after administration
Source text: (§2) This property is particularly relevant to target Gd deposited in the brain.

[3] = Decorporation of actinide ions in animal studies, potency versus DTPA; format: in vivo
Source text: as §2

[4] = Delayed parenteral (ip) chelation treatment of mice contaminated iv with ^238Pu-citrate; format: in vivo, Swiss-Webster mice; conditions: for adverse effects at the dose levels used: both studies (delayed and prophylactic treatment); for sustained action beyond 24 hours after treatment: cumulative ^238Pu excretion, FIG. 4; for ^238Pu excretion pathway enhanced by treatment: independent of post-contamination treatment time, FIG. 5; for time by which rates of elimination became slower than in control animals: prompt treatment 1 hour post-contamination; for ^238Pu elimination, total body burden and tissue content versus saline-treated controls: 7 days after treatment
Procedure: (§3) A stock solution of ^238Pu-nitrate in 4 M HNO3 was purchased from Eckert and Ziegler Isotope Products (Valencia, CA, USA) and used to prepare injection solutions. Contamination doses consisted of 0.2 mL aliquots of solutions containing 0.74 kBq (1.16 ng) of ^238Pu in 0.008 M sodium citrate and 0.14 M NaCl, pH 4. The ligands 3,4,3-LI(1,2-HOPO) and 5-LIO(Me-3,2-HOPO) were prepared by Synthetech, Inc. (Albany, Oreg., USA) and Albany Molecular Research, Inc. (Albany, NY, USA), respectively, as described previously. DTPA was obtained from Sigma-Aldrich (St. Louis, Mo., USA) and was formulated as Ca-DTPA using CaCO3 and NaOH, similarly to the formerly available drug product commercialized by Hameln Pharmaceuticals gmbh (Hameln, Germany). Ligand solutions were prepared such that the selected dosages ([…] for Ca-DTPA, 30 or 100 mol/kg for 3,4,3-LI(1,2-HOPO), and 100 or 200 mol/kg for 5-LIO(Me-3,2-HOPO)) were contained in 0.5 mL of 0.14 M NaCl, with the pH adjusted to 7.4-8.4 with 1 N NaOH. All solutions were filter-sterilized (0.22 μm) prior to administration. The concentration of each solution was verified by high-performance liquid chromatography, following modified published methods.
(§4) All procedures and protocols used in the described in vivo studies were reviewed and approved by the Institutional Animal Care and Use Committee of Lawrence Berkeley National Laboratory and were performed in AAALAC accredited facilities. The animals used were young adult (86±6 days old for delayed treatment experiment and 90±3 days old for prophylactic treatment experiment) female (30.7±4.0 g for delayed treatment experiment and 30.8±1.6 g for prophylactic treatment experiment) Swiss-Webster mice (Simonsen Laboratories, Gilroy, Calif., USA). Gross body and tissue compositions, plasma, extracellular fluid, and red cell volumes of the whole body, major tissues and organs of these mice (intact or bled 25 to 40% of their total blood volume) have been determined previously. Mice were kept under a 12-hour light cycle with controlled temperature (18-22° C.) and relative humidity (30-70%), and were given water and food ad libitum. Each group of mice was housed together in a plastic stock cage lined with a 0.5 cm layer of highly absorbent low-ash pelleted cellulose bedding (ALPHA-dri®) for separation of urine and feces. Intravenous (iv) injections into a warmed lateral tail vein, intraperitoneal (ip) injections, oral administrations (po, through gastric intubation) and euthanasia were performed under isoflurane anesthesia. Treatment dose volumes were adjusted based on the weight of the mouse, with a 0.5 mL volume corresponding to a 35 g mouse. To probe the effect of delayed treatment, groups of five mice were injected iv with a single dose of ^238Pu-citrate, and ligand or control saline solutions were administered ip once at the following post-contamination treatment times: 1 h, 5 h, 16 h, 24 h, 3 d, 7 d. Excreta were collected daily for 7 days. Animals were euthanized 7 days after treatment. To probe the effect of prophylactic treatment, groups of five mice were first administered ligand or control saline solutions ip or po once at the following pre-contamination treatment times: −1 h, −6 h, −16 h, −24 h, −30 h, −40 h, −48 h. Mice were then injected iv with a single dose of ^238Pu-citrate and excreta were collected daily for 3 days. Animals were euthanized 3 days (72 h) after contamination. Mice were euthanized by cervical dislocation over their respective cage to collect the urine expelled at death, and immediately wrapped in plastic and frozen for later dissection.
(§5) After partial thawing of the frozen mice, livers and kidneys were dissected, and the abdominal tissue remainder (ATR, which includes intact gastrointestinal (GI) tract, reproductive organs, spleen, urinary bladder, and abdominal fat) was removed. The livers, kidneys, ATR, and partially eviscerated carcasses were managed as individual samples. […]

[5] = Complex stability constant in vitro, Gd(III); format: binding
Source text: as §1

[6] = Oral activity: removal of injected Pu after oral administration; format: in vivo; conditions: administered orally after a Pu injection, mice or beagles
Source text: (§6) Oral Activity. Both compounds are orally active actinide chelators: when administered orally to mice or beagles after a Pu injection, 3,4,3-LI-1,2-HOPO and 5-LIO-Me-3,2-HOPO can remove up to 80% and 60%, respectively, of the injected Pu.

[7] = Clearing circulating or newly deposited Pu from mouse tissues compared with CaNa3-DTPA; format: in vivo
Source text: For example, the efficiency of 3,4,3-LI-1,2-HOPO for clearing circulating Pu from mouse tissues ranges from 100 times (skeleton) to 240 times (soft tissues) that of CaNa3-DTPA in five different protocols. In addition, the optimal activity dose of 3,4,3-LI-1,2-HOPO for removing newly deposited Pu from mice is 2.5% of the dose of CaNa3-DTPA used clinically. The tetradentate 5-LIO-Me-3,2-HOPO has potential therapeutic value for Pu, U, Am and Np, and its efficiency for clearing circulating Pu from mouse tissues ranges from 5 times (skeleton) to 15 times (liver) that of CaNa3-DTPA.

[8] = Gd-153 decorporation in mice injected with ^153Gd citrate (Example 9); format: in vivo; conditions: for excretion pathway: Gd-153
Procedure: The present example is an evaluation of the metal-removal effectiveness of various molecules, including 3,4,3-LI(1,2-HOPO) and DTPA. The arrangements tested (which compounds, how much, how long pre or post-contamination the compound was administered, etc.) are outlined in Table 9.1.
The results of the various test arrangements in Table 9.1 are detailed in FIGS. 8A-8Q. The data is plotted as a percent of recovered dose (%RD), with whole animal and specific tissue isotope content determine at a unique time point (4 days post metal challenge) while excreta are determined daily until necropsy. […] The almost-exclusively-fecal excretion pathway of 3,4,3-LI(1,2-HOPO) is also remarkably different from that of DTPA (urinary). […] FIGS. 8A-8C depict a general overview of the results. FIG. 8D depicts a comparative analysis of the recovered dose in the body vs excreta. FIGS. 8E-8P depict a break down by tissue type, including brain (FIG. 8E), Thymus (FIG. 8F), heart (FIG. 8G), lungs (FIG. 8H), spleen (FIG. 8I), kidneys (FIG. 8J), abdominal remaining tissue (ART, FIG. 8K), all other soft tissues (SOFT, FIG. 8L), liver (FIG. 8M), and skeleton (SKEL, FIG. 8N). FIGS. 8O and 8P show the total urinary and fecal excretion at the time of necropsy. FIG. 8Q depicts the daily excreta.

[9] = Complex stability constant in vitro, Cm(III); format: binding
Source text: as §1

[10] = Prophylactic parenteral or oral chelation treatment of mice before iv ^238Pu-citrate contamination; format: in vivo, Swiss-Webster mice; conditions: for prophylactic window with significant reductions in total body, skeleton and liver ^238Pu: oral administration, versus saline controls; for prophylactic window with significant reduction of body and tissue ^238Pu burden: parenteral (ip) administration prior to contamination
Procedure: as §3, §4, §5

[11] = Pharmacokinetics and biodistribution of ^14C-labeled ligand in mice; format: in vivo, Swiss-Webster mouse; conditions: for metabolic degradation: ^14C-labeled ligands
Source text: The pharmacokinetics and biodistribution profile of the ^14C-labeled 3,4,3-LI(1,2-HOPO) were recently characterized in the young Swiss-Webster mouse model. After parenteral injection, the radiolabeled compound was rapidly distributed into high vascular tissues, and highest kidney and liver concentrations were seen as early as 1-hour post-administration. However, those high concentrations […] and more strikingly, about 40% of the administered dose was still in various tissues and organs after 24 hours. […] Nevertheless, retention of the ligand was significant within the first 6 hours after oral administration, which also corroborates the shorter but consequent prophylactic activity of 3,4,3-LI(1,2-HOPO) after oral administration.
Those differences have been discussed previously and are presumably based on respective ligand and actinide-complex physico-chemical parameters such as solubility, lipophilicity, and ionization constants. […] It is therefore likely that the radionuclide excretion path is ligand-driven.
as §6

[12] = single ip dose 1 hour to 16 hours post-contamination

Compound: O=C(NCCCN(CCCCN(CCCNC(=O)c1cccc(=O)n1O)C(=O)c1cccc(=O)n1O)C(=O)c1cccc(=O)n1O)c1cccc(=O)n1O [3,4,3-LI(1,2-HOPO)]
- Log β110 [1]: > 41.5
- blood-brain barrier penetration [2]: can penetrate the blood-brain barrier
- potency relative to DTPA at decorporating actinide ions [3]: up to 30 times
- ^238Pu skeleton content ([4]; all tested treatment time points): significantly reduced
- adverse effects at the dose levels used [4]: did not result in any discernable adverse effects
- sustained action beyond 24 hours after treatment [4]: visible throughout the seven-day excreta collection period
- ^238Pu excretion pathway enhanced by treatment [4]: primarily through the biliary pathway
- time by which rates of elimination became slower than in control animals [4]: 3 days post-treatment
- decrease in ^238Pu content versus DTPA treatment [4, 12]: significantly better than those observed after DTPA treatment
- ^238Pu elimination, total body burden and tissue content versus saline-treated controls [4, 12]: significant increases in ^238Pu elimination rates
- ^238Pu elimination ([4]; treatment delayed 24 hours to 7 days after contamination): significantly enhanced
- Log β110 [5]: 20.5
- injected Pu removed [6]: up to 80%
- optimal activity dose for removing newly deposited Pu, as share of the CaNa3-DTPA dose used clinically ([7]; mice): 2.5%
- efficiency for clearing circulating Pu relative to CaNa3-DTPA ([7]; mouse skeleton): 100 times
- efficiency for clearing circulating Pu relative to CaNa3-DTPA ([7]; mouse soft tissues): 240 times
- Gd-153 removal ([8]; 100 μmol/kg ip, 48 hours post-exposure): extremely efficient
- Gd-153 decorporation ([8]; 100 μmol/kg ip, up to 24 hours prophylactically): high and almost quantitative level of decorporation
- excretion pathway [8]: almost-exclusively-fecal
- Gd-153 removal from kidneys ([8]; compared with DTPA): more efficient than DTPA
- Gd-153 removal from the skeleton ([8]; mouse, in vivo): ability at removing Gd-153 from the skeleton
- Log β110 [9]: 21.8
- ^238Pu urinary output relative to fecal output ([10]; 30 μmol/kg ip 1 hour prior to contamination): 3 fold
- ^238Pu excreted within 3 days ([10]; ip injection 48 hours before contamination): up to 50%
- prophylactic window with significant reductions in total body, skeleton and liver ^238Pu [10]: 6 h
- prophylactic window with significant reduction of body and tissue ^238Pu burden [10]: ≥ 48 h
- full body, skeleton, liver, soft tissue and kidney ^238Pu content versus saline- and DTPA-treated groups ([10]; prophylactic ip treatment): large significant reductions
- oral bioavailability ([10]; reflected in lack of efficacy for earlier oral treatments): low
- metabolic degradation [11]: stable to metabolic degradation
- administered dose still in various tissues and organs ([11]; after 24 hours, parenteral injection, ^14C-labeled): about 40%
- main mode of elimination of the ligand ([11]; mice, parenteral or oral administration, ^14C-labeled): biliary pathway is the main mode of elimination
- time of highest kidney and liver concentrations ([11]; post-administration, parenteral injection, ^14C-labeled): 1 h

Compound: diethylenetriamine pentaacetic acid [DTPA, reference compound]
- sustained action beyond 24 hours after treatment [4]: visible over several days after treatment
- ^238Pu excretion pathway enhanced by treatment [4]: enhanced urinary excretion
- excretion pathway [8]: urinary
- prophylactic window with significant reduction of body and tissue ^238Pu burden [10]: 6 h

Compound: Cn1ccc(C(=O)NCCOCCNC(=O)c2ccn(C)c(=O)c2O)c(O)c1=O [5-LIO(Me-3,2-HOPO)]
- adverse effects at the dose levels used [4]: did not result in any discernable adverse effects
- sustained action beyond 24 hours after treatment [4]: did not display significant sustained action
- ^238Pu excretion pathway enhanced by treatment [4]: primarily through the biliary pathway
- time by which rates of elimination became slower than in control animals [4]: 2 days post-treatment
- ^238Pu elimination, total body burden and tissue content versus saline-treated controls [4, 12]: significant increases in ^238Pu elimination rates
- injected Pu removed [6]: ≤ 60%
- efficiency for clearing circulating Pu relative to CaNa3-DTPA ([7]; mouse liver): 15 times
- efficiency for clearing circulating Pu relative to CaNa3-DTPA ([7]; mouse skeleton): 5 times
- prophylactic window with significant reductions in total body, skeleton and liver ^238Pu [10]: 6 h
- prophylactic window with significant reduction of body and tissue ^238Pu burden [10]: 1 h
- metabolic degradation [11]: stable to metabolic degradation
